Data taken from patent publication US10173969B2, “Production of aniline via anthranilate” (Covestro Deutschland AG, priority 2014, dated 2019).

Experiments:
[1] = Kinetics of thermal decarboxylation in aqueous buffer solution without catalyst; format: physicochemical; conditions: for k (rate coefficient of decarboxylation) / n (order of reaction of decarboxylation): buffer solution, no catalyst
Excerpt: (§1) In this experiment, the kinetics of the thermal decarboxylation of step b) of the method according to the invention was studied. […] In this case it was possible to decarboxylate anthranilate ion to aniline (ANL). AA, or o-aminobenzoate, respectively was either provided biologically by a recombinant microbial host as described in Example 1, or it was provided chemically, e.g. it was commercially obtained, e.g. from Sigma Aldrich, catalog no. A89855.
(§2) A buffer solution containing (NH4)2SO4 (20 g/L), Na2HPO4 (1 g/L) and KH2PO4 (1 g/L) in distilled water was prepared. Then AA 10 wt % was suspended in this solution. NH4OH solution (28-30% NH3) was added dropwise into this suspension until a clear yellow solution was formed. The pH of this ammonium anthranilate (NH4AA) solution was around 7. The ammonium anthranilate (3 wt %) solution was also prepared using this method.
80 mL of each of the above solutions was transferred into an autoclave 160 mL and heated to 160° C. or 180° C. and samples were taken at different time intervals to analyse the rate of aniline (ANL) formation.
Decarboxylation of AA 0.5 wt % and NH4AA 3 wt % in aqueous buffer solution was performed at 160° C. without using any catalyst. […] The kinetic model was established using the general reaction rate formula as below and considering the experimental data to calculate the optimized k and n parameters which are the rate coefficient and the order of reaction, respectively.
The kinetics of NH4AA 10 wt % decarboxylation at 160° C. and 180° C. was also studied using experimental data and a simulating model.

[2] = Solubility of ammonium anthranilate in buffer solution; format: physicochemical; conditions: AA buffer solution with NH4OH added
Excerpt: as §1, §2

[3] = reaction temperature 160 °C, listed as NH4AA 10% in buffer solution

SMILES: Nc1ccccc1C(=O)O [AA 0.5% in buffer solution, anthranilic acid]
- rate coefficient (k) relative to that of NH4AA 3 wt % ([1]; 160 °C, decarboxylation in water): 6.8 times
- k (rate coefficient of decarboxylation) ([1]; reaction temperature 160 °C): 0.0519 h⁻¹
- n (order of reaction of decarboxylation) ([1]; reaction temperature 160 °C): 0.9207

SMILES: N.Nc1ccccc1C(=O)O [NH4AA 3% in buffer solution, ammonium anthranilate]
- rate coefficient at 180 °C relative to that at 160 °C ([1]; NH4AA 10 wt %): 36 times
- k (rate coefficient of decarboxylation) ([1]; reaction temperature 160 °C): 0.00755 h⁻¹
- n (order of reaction of decarboxylation) ([1]; reaction temperature 160 °C): 0.8706
- k (rate coefficient of decarboxylation) [1, 3]: 0.000713 h⁻¹
- n (order of reaction of decarboxylation) [1, 3]: 1.2758
- k (rate coefficient of decarboxylation) ([1]; reaction temperature 180 °C): 0.026 h⁻¹
- n (order of reaction of decarboxylation) ([1]; reaction temperature 180 °C): 0.9793

SMILES: N.Nc1ccccc1C(=O)O [ammonium anthranilate]
- solubility [2]: up to 10%
